Values of other authors in US20030219468A1 (priority 2002, published 2003).

Tests used:
Plasmodium berghei = conditions: mice, toward Plasmodium berghei
[1] = cold water
[2] = sorbic acid and its salts

Question: Which immunizing activity (Plasmodium berghei) does the source give for Curdlan here?
Answer: immunizing activity

Question: With `C/C=C/C=C/C(=O)O` [Sorbic acid, trans,trans-2,4-hexadienoic acid] as the compound, how does the solubility [1] read?
Answer: only slightly soluble

Question: What about the microbiostatic antimycotic activity [2] of the same compound?
Answer: very high microbiostatic antimycotic activity
